Results as given in patent publication US20260234147A1 (priority 2023, published 2026).
Where two headings read alike, the source gives them in different places.

Assays:
α2C adrenergic receptor = target: T1, α2C adrenergic receptor (Homo sapiens, UniProt P18825); experiment: Radioligand binding assay (Eurofins Cerep), [3H]RX 821002 displacement; details: Table B1, mean ± SEM, 3 independent experiments
T1 construct: Eurofins Cerep (contract screening)
T1 sequence (P18825 1-462): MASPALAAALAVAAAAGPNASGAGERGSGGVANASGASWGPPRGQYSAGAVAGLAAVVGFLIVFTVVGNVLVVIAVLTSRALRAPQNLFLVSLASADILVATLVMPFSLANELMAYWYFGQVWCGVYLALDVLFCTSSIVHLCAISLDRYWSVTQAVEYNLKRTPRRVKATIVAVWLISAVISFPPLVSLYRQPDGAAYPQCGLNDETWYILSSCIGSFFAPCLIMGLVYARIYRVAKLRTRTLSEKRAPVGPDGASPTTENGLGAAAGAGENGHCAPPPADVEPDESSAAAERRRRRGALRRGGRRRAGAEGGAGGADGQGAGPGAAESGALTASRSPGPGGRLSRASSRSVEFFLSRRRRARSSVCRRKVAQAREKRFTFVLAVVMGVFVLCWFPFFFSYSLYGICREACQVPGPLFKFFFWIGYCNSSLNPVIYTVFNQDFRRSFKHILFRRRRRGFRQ

α2A adrenergic receptor = target: T2, α2A adrenergic receptor (Homo sapiens, UniProt P08913); experiment: as above
T2 construct: Eurofins Cerep (contract screening)
T2 sequence (P08913 1-465): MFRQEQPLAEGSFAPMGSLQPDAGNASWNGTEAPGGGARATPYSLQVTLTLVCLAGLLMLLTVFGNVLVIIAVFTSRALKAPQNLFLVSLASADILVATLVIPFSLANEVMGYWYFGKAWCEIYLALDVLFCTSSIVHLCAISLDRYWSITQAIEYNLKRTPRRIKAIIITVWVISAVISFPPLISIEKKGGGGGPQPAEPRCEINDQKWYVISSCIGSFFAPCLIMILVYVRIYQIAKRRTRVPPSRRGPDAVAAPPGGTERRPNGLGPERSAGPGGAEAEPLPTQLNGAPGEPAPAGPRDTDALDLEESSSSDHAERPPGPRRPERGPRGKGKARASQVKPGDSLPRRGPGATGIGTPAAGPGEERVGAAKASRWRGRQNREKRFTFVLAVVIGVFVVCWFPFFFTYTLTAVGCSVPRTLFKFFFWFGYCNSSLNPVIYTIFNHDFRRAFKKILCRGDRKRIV

hMOR = hMOR (Homo sapiens, UniProt P35372); experiment: Radioligand binding assay (Eurofins Cerep), [3H]DAMGO displacement; details: read-out: MOR Ki ± SEM
Chain of hMOR (P35372 whole entry): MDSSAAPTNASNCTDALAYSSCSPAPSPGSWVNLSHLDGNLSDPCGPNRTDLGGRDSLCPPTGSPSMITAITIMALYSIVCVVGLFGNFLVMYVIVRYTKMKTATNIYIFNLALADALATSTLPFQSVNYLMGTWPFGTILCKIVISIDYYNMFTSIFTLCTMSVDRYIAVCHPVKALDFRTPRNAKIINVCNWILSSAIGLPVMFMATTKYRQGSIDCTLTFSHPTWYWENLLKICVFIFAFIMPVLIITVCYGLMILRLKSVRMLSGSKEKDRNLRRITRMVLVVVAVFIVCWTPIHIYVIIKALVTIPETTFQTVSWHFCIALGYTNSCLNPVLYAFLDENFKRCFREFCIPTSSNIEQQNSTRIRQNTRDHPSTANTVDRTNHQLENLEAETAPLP

hKOR = hKOR (Homo sapiens, UniProt P41145); experiment: Radioligand binding assay (Eurofins Cerep), [3H]U69,593 displacement; details: Table B1′; read-out: KOR Ki ± SEM
Chain of hKOR (P41145 whole entry): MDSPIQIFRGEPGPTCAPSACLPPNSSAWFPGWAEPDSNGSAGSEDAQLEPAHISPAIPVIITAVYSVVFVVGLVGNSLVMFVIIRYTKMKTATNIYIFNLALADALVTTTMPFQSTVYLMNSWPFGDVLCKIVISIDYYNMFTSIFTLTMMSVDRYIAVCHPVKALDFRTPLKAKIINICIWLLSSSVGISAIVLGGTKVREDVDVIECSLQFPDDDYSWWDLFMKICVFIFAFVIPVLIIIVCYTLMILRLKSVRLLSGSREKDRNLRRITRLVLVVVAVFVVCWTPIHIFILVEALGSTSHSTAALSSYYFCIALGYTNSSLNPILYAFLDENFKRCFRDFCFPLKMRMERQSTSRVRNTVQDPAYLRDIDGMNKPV

hDOR = hDOR (Homo sapiens, UniProt P41143); experiment: Radioligand binding assay (Eurofins Cerep), [3H]DADLE displacement; details: Table B1′; read-out: DOR Ki ± SEM
Chain of hDOR (P41143 whole entry): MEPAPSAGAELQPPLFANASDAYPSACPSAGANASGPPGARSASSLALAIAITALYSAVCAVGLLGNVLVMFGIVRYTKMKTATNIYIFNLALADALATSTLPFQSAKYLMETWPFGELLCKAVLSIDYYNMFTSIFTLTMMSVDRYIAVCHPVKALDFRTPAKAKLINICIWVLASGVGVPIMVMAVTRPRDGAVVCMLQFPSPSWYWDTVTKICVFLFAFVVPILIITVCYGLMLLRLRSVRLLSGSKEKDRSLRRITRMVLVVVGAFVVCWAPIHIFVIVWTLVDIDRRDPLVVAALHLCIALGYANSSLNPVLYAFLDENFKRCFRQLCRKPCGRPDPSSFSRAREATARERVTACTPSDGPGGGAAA

[1] = Table B1, mean ± SEM, 3 independent experiments
[2] = alpha2A Ki ± SEM (nM), Table B1′

SMILES: COC(=O)CC1CCN2CCC(O)(c3ccccc3OC)CC2C1 (stereo not drawn) [SG-01-006, Methyl 2-(8-hydroxy-8-(2-methoxyphenyl)octahydro-1H-quinolizin-2-yl)acetate]
- Ki (α2C adrenergic receptor; read-out: Alpha2C Ki ± SEM): 139 ± 20.3 nM
- Ki (α2A adrenergic receptor; Alpha2A Ki ± SEM (nM), Table B1, mean ± SEM, 3 independent experiments): 376 ± 72.2 nM
- Ki (hMOR; [1]): > 10 µM

SMILES: COC(=O)CC1CCN2CCC(c3ccccc3OC)CC2C1 (stereo not drawn) [SG-01-008, Methyl 2-(8-(2-methoxyphenyl)octahydro-1H-quinolizin-2-yl)acetate]
- Ki (α2C adrenergic receptor; Alpha2C Ki ± SEM (nM)): 13.6 ± 0.828 nM
- Ki (α2A adrenergic receptor; Table B1, mean ± SEM, 3 independent experiments, read-out: Alpha2A Ki ± SEM): 27.9 ± 3.05 nM
- Ki (hMOR; [1]): > 10 µM

SMILES: COC(=O)C=C1CCN2CCC(O)(c3ccccc3OC)CC2C1 (stereo not drawn) [drawing 167]
- Ki (α2A adrenergic receptor; [2]): 227 ± 37 nM
- Ki (hKOR): > 10 µM
- Ki (hDOR): 2.94 ± 2.55 µM
- Ki (hMOR; Table B1′): > 10 µM

SMILES: COC(=O)CC1CCN2CCC(c3ccccc3OC)CC2C1 (stereo not drawn) [drawing 171]
- Ki (α2A adrenergic receptor; Table B1′, read-out: alpha2A Ki ± SEM): 24 ± 3 nM
- Ki (hKOR): > 10 µM
- Ki (hDOR): > 10 µM
- Ki (hMOR; Table B1′): > 10 µM

SMILES: COC(=O)CC1CCN2CCC(O)(c3ccccc3)CC2C1 (stereo not drawn) [drawing 173]
- Ki (α2A adrenergic receptor; [2]): 129 ± 49 nM
- Ki (hKOR): 3.6 ± 1.08 µM
- Ki (hDOR): > 10 µM
- Ki (hMOR; Table B1′): 8.61 ± 2.53 µM

SMILES: COC(=O)C=C1CCN2CCC(O)(c3ccccc3)CC2C1 (stereo not drawn) [drawing 176]
- Ki (α2A adrenergic receptor; [2]): 155 ± 65 nM
- Ki (hKOR): 7.66 ± 2.67 µM
- Ki (hDOR): > 10 µM
- Ki (hMOR; Table B1′): > 10 µM

SMILES: COC(=O)C=C1CCN2CCC(O)(c3cccc(OC)c3)CC2C1 (stereo not drawn) [drawing 179]
- Ki (α2A adrenergic receptor; [2]): 37 ± 3 nM
- Ki (hKOR): > 10 µM
- Ki (hDOR): > 10 µM
- Ki (hMOR; Table B1′): > 10 µM

SMILES: COC(=O)C=C1CCN2CCC(O)(c3cccc(OC)c3)CC2C1 (stereo not drawn) [drawing 180]
- Ki (α2A adrenergic receptor; [2]): 44 ± 5 nM
- Ki (hKOR): > 10 µM
- Ki (hDOR): > 10 µM
- Ki (hMOR; Table B1′): > 10 µM
